Data published in paper PMC3528345 (Cancer research, 2012).

Target: PARP1 (Gallus gallus, UniProt P26446)
Sequence (P26446 whole entry): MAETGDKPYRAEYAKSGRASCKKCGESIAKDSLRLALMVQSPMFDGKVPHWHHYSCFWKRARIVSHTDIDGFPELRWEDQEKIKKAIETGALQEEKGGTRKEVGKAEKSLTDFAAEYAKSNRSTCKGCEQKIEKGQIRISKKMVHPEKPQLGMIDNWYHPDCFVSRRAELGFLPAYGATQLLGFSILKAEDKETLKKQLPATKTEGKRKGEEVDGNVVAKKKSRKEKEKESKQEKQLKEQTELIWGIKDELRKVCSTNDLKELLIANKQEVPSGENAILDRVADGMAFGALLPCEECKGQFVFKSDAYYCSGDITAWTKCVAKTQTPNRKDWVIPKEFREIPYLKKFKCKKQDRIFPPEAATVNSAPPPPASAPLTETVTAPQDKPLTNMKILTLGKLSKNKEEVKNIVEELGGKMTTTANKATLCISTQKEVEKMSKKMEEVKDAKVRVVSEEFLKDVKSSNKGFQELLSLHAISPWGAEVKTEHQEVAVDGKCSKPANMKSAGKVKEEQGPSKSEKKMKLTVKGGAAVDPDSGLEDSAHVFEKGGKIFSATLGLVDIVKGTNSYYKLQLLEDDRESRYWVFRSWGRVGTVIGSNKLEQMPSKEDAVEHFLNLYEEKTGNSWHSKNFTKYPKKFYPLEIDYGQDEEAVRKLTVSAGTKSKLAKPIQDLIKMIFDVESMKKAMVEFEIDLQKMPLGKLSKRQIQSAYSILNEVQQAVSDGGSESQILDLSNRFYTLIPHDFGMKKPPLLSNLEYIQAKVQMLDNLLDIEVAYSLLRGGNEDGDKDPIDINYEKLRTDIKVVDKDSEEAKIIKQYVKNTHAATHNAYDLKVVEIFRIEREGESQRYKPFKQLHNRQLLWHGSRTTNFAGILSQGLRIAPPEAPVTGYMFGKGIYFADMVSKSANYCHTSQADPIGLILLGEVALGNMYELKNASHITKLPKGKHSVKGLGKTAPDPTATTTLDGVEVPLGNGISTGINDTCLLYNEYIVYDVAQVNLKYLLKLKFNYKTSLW

| Compound | IC50 [nM] |
| --- | --- |
| NC(=O)c1cccc2cn(-c3ccc([C@@H]4CCCNC4)cc3)nc12 [MK-4827] | 50.5 |
| C[C@]1(c2nc3c(C(N)=O)cccc3[nH]2)CCCN1 [veliparib] | 10.5 |
